{"source": "patent US20170009119A1", "about": "“DIELECTRIC FLUID AND COOLANT MADE WITH BIOBASED BASE OIL” (Novvi LLC, priority 2014, published 2017)", "origin": "cited, not measured here", "tested_on": "aquatic life", "conditions": "European Directive 67/548/EEC"}
{"smiles": "c1ccc2c(c1)CCCC2", "note": "[tetralin, 1,2,3,4-tetrahydronaphthalene]", "values": [{"measurement": "toxicity to aquatic life (code R51/53)", "value": "toxic to aquatic life with long lasting effects"}]}
